Results taken from patent publication US8426458B2, “Hepatitis C Virus inhibitors” (priority 2009, dated 2013).

System: HCV 1b genotype replicon
Experiment: HCV replicon assay (qRT-PCR or luciferase), genotype 1b
Type: cell-based
Settings: Hepatitis C virus, read-out: Genotype-1b replicon EC50 Range
Source text: HCV replicon cell lines (kindly provided by R. Bartenschlager) isolated from colonies as described by Lohman et. al. (Lohman et al. (1999) Science 285: 110-113, expressly incorporated by reference in its entirety) and used for all experiments. The HCV replicon has the nucleic acid sequence set forth in EMBL Accession No.: AJ242651, the coding sequence of which is from nucleotides 1801 to 8406.
The coding sequence of the published HCV replicon was synthesized and subsequently assembled in a modified plasmid pBR322 (Promega, Madison, Wis.) using standard molecular biology techniques. […]
EC50 values of single agent compounds and combinations were determined by HCV RNA detection using quantitative RT-PCR, according to the manufacturer's instructions, with a TaqMan® One-Step RT-PCR Master Mix Reagents Kit (Cat# AB 4309169, Applied Biosystems) on an ABI Model 7500 thermocycler. The TaqMan primers used for detecting and quantifying HCV RNA were obtained from Integrated DNA Technologies. HCV RNA was normalized to GAPDH RNA levels in drug-treated cells, which is detected and quantified using the Human GAPDH Endogenous Control Mix (Applied Biosystems, AB 4310884E). […] Chemical agent cytotoxicity is evaluated using an MTS assay according to the manufacturer's directions (Promega). […]

How did the EC50 turn out when CN(C)[C@H](C(=O)N1CCC[C@H]1c1nc(C(=O)N[C@H]2CC[C@H](NC(=O)c3c[nH]c([C@@H]4CCCN4C(=O)[C@@H](c4ccccc4)N(C)C)n3)CC2)c[nH]1)c1ccccc1 [Example 2] was run?
Its EC50 is > 10 nM.
